These results are taken from ChEMBL document CHEMBL3638630 (2014).

A word on the Ki: it is a dissociation constant, usually derived from enzyme kinetics or from competition with a known ligand. Lower therefore signals tighter binding.

Structures are written as SMILES.

Test [1] deals with 72 kDa type IV collagenase (Homo sapiens, UniProt P08253). In words: (§1) Inhibition Assay: The inhibition tests and the evaluation of the inhibition constants (Ki) on the various MMPs were carried out as described by Devel et al. (Devel et al. 2006 J. Biol. Chem. (7)).
Sequence of 72 kDa type IV collagenase (P08253 whole entry): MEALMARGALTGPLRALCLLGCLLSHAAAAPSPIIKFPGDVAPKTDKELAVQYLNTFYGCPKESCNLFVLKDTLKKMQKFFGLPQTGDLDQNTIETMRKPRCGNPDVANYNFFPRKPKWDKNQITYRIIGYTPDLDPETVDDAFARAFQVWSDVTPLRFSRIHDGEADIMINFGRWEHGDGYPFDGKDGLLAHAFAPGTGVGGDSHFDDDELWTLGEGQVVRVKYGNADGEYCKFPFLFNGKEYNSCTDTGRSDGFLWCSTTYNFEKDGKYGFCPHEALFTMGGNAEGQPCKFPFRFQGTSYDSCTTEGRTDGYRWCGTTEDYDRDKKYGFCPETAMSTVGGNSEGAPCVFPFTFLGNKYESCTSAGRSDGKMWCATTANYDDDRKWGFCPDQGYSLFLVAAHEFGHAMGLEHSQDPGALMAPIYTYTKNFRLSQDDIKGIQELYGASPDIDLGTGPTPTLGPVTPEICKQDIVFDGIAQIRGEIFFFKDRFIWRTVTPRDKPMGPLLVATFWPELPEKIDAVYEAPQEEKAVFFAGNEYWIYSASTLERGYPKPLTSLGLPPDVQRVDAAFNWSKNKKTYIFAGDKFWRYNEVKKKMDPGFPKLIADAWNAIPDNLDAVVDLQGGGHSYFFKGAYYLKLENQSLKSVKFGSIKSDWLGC
The next test has as its target Collagenase 3 (Homo sapiens, UniProt P45452). Described as §1.
Test [2] addresses Macrophage metalloelastase (Homo sapiens, UniProt P39900). The test is described as §1.
Test [3] addresses Matrix metalloproteinase-14 (Homo sapiens, UniProt P50281). Described as §1.
Test [4] deals with Matrix metalloproteinase-9 (Homo sapiens, UniProt P14780). Described as §1.
Sequence of Matrix metalloproteinase-9 (P14780 whole entry): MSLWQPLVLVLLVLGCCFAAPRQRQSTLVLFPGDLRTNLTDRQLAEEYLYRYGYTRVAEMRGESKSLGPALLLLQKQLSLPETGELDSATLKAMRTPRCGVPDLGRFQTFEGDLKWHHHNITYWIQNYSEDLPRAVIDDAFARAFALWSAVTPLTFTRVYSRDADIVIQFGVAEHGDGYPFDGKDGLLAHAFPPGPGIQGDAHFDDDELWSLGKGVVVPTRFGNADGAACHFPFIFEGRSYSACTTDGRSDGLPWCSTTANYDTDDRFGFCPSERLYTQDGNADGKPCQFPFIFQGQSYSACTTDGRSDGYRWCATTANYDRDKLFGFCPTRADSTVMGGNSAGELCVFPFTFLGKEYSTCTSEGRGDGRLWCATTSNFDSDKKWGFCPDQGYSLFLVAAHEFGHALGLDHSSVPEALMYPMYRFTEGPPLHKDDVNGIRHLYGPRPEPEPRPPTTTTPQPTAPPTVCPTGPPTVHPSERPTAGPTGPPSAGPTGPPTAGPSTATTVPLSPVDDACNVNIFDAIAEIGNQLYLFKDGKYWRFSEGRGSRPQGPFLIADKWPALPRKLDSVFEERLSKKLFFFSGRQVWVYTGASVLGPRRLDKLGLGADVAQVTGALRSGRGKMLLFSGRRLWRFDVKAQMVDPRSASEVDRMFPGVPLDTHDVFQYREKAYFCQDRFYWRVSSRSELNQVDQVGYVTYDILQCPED
Another test concerns the target Neutrophil collagenase (Homo sapiens, UniProt P22894). The description is as §1.
The next test has as its target Stromelysin-1 (Homo sapiens, UniProt P08254). The description is as §1.
A further test has as its target Stromelysin-2 (Homo sapiens, UniProt P09238). The description is as §1.

Sequence of Stromelysin-2 (P09238 whole entry): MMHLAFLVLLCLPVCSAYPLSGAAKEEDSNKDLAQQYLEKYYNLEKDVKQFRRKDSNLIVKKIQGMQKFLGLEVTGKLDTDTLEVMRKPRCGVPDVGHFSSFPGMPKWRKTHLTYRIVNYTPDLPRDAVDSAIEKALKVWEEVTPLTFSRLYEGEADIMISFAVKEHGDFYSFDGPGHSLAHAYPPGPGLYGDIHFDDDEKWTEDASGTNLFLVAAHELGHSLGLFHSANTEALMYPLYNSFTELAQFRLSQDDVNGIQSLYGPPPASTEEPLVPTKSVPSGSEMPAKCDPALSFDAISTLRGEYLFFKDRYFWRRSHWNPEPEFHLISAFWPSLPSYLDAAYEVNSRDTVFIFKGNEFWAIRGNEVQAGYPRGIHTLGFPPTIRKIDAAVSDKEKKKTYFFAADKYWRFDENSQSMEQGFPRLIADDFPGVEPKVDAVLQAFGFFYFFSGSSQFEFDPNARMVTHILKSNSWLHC
Sequence of Stromelysin-1 (P08254 whole entry): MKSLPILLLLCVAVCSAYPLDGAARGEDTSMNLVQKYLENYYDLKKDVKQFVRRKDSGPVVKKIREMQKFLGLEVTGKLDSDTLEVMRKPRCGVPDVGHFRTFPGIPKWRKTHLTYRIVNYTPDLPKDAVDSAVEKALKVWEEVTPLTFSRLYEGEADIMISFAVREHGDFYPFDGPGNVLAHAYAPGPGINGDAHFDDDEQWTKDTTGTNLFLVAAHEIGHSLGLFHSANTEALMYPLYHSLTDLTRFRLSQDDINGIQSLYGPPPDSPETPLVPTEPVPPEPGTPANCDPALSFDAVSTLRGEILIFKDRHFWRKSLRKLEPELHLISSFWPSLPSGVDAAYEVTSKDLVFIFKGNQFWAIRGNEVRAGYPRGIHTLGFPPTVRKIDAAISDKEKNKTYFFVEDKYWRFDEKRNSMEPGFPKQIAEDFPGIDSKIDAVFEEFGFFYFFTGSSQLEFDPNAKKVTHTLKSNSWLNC
Sequence of Neutrophil collagenase (P22894 whole entry): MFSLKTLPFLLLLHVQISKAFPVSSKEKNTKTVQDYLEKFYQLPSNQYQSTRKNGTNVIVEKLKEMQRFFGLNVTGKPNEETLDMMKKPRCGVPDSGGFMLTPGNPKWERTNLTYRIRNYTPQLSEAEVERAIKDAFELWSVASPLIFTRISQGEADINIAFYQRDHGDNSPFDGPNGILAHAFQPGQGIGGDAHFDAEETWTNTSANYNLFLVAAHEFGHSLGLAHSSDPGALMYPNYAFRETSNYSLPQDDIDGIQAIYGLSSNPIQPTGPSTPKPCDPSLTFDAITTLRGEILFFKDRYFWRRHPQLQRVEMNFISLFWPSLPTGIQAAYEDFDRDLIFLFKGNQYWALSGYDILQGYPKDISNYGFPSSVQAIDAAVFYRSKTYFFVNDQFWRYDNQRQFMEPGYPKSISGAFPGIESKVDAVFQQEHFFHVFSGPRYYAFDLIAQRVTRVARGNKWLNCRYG
Sequence of Macrophage metalloelastase (P39900 whole entry): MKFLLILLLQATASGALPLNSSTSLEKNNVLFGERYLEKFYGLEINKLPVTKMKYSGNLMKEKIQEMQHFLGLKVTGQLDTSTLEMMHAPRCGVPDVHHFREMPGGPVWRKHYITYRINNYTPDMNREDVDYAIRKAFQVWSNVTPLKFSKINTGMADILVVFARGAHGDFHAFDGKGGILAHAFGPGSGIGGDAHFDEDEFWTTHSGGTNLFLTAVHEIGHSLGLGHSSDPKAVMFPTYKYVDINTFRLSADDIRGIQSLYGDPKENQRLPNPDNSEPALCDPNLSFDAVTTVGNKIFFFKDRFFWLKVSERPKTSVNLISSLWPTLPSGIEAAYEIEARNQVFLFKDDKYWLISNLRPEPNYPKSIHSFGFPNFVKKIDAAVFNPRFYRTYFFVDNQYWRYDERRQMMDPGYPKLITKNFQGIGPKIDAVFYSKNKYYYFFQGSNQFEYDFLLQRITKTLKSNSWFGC

Regarding `NC(=O)CC[C@H](NC(=O)CCc1ccc(-c2cc(-c3ccccc3)cs2)cc1)C(=O)N[C@@H](CCC(=O)O)C(N)=O`, the Ki in test [1] was > 5 µM; at Collagenase 3, > 1 µM; in test [2], 0.317 µM; in test [3] it was > 10 µM; in test [4] it was > 5 µM; on Neutrophil collagenase, > 10 µM. The inhibition constant Ki at Stromelysin-1 and on Stromelysin-2 was > 10 µM each time.
